Structures can show the parent of a compound that is named as a salt.
What was measured:
[1] = molecular target: T1, Recombinant human SHP2 full-length protein (Homo sapiens, UniProt Q06124); experiment: SHP2 activity inhibition measurement (fluorescence detection, surrogate substrate DiFMUP); format: biochemical; details: recombinant human SHP2 full-length protein activated with diphosphopeptide
T1 construct: Recombinant human SHP2 full-length protein
T1 sequence (Q06124 1-593): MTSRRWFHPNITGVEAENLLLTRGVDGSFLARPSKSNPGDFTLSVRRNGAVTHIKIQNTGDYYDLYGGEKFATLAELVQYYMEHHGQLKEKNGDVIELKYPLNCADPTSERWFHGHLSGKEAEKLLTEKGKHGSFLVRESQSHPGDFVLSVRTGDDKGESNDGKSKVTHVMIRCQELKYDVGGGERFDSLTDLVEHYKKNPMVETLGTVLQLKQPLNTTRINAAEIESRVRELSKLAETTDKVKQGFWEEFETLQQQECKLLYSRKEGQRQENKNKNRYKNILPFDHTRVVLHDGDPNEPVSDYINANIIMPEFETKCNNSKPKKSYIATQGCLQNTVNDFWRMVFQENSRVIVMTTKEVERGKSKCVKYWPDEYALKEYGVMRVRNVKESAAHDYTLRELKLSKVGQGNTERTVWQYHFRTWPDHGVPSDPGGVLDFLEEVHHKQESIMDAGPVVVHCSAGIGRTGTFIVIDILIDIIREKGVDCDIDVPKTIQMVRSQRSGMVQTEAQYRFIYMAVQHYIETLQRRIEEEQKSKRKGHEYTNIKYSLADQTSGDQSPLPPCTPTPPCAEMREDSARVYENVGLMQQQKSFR
Method: SHP2 activity inhibition measurement
The effect of the compound of the present invention on SHP2 activity is evaluated by rapid fluorescence detection method using the surrogate substrate DiFMUP.
(§1) The experimental method is outlined as follows:
Recombinant human SHP2 full-length protein was expressed and purified by the protein purification and identification platform of Tsinghua University; diphosphopeptide (H2N-LN(pY)IDLDLV-(dPEG8)LST(pY)ASINFQK-amide) was synthesized by Nanjing GenScript Biotechnology Co., Ltd.; surrogate substrate DiFMUP was purchased from Thermo Fisher Scientific (Cat. No. D6567); reaction buffer contained the following components: 60 mM HEPES (pH 7.2), 75 mM NaCl, 75 mM KCl, 1 mM EDTA, 0.05% TWEEN 20, and 5 mM DTT.
The compound was dissolved in DMSO (Sigma, Cat. No. D5879) and diluted to 100 μM. The resulting solution was serially diluted 4-fold with DMSO to a minimum concentration of 6.1 nM, and each concentration point was diluted 25-fold with the reaction buffer.
10 μL of compound solution and 10 μL of 0.25 nM SHP2 protein solution were added to a 384-well microplate (Corning, Cat. No. 3575), mixed well, and incubated at room temperature for 30 min. 10 μL of 0.5 μM diphosphopeptide (dissolved in the reaction buffer) was added, mixed well, and incubated at room temperature for 30 to 60 min. Subsequently, 10 μL of 60 μM DiFMUP solution (dissolved in the reaction buffer) was added, mixed well, and let stand at room temperature. After 30 min, fluorescence signals were measured at 340 nm (excitation wavelength)/450 nm (emission wavelength) using a microplate reader (EnSpire, Perkin Elmer). The fluorescence intensity value was positively correlated with the degree of dephosphorylation of the substrate, thereby reflecting the catalytic activity of SHP2. […] An inhibition curve of the compound was plotted by XLfit software and the inhibitory IC50 was calculated.

[2] = test system: human non-small cell lung cancer cell line NCI-H358; experiment: NCI-H358 cell proliferation inhibition (luminescent cell viability assay, CTG); format: cell-based; details: 120 h, NCI-H358 cells, 5 days, CellTiter-Glo
Method: Determination of NCI-H358 cell proliferation inhibition
The effect of the compound of the present invention on proliferation of human non-small cell lung cancer cell line NCI-H358 is evaluated by luminescent cell viability assay.
as §1
The compound was dissolved in DMSO (Sigma, Cat. No. D5879) and diluted to 5 mM. The resulting solution was serially diluted 4-fold with DMSO to a minimum concentration of […], and each concentration point was diluted 50-fold with RPMI 1640 Medium (Thermo Fisher Scientific, Cat. No. 11995073). When the IC50 value of the compound was low, the initial concentration of the compound was further reduced.
NCI-H358 cells (ATCC, Cat. No. CRL-5807) were cultured in RPMI 1640 Complete Medium [RPMI 1640 Medium was supplemented with 10% FBS (GBICO, Cat. No. 10099-141) and 100 units/mL Penicillin-Streptomycin (Thermo Fisher Scientific, Cat. No. 15140122)]. The cells (15,000 cells/mL) were seeded in 90 μL of Complete Medium on a 96-well plate. After culturing overnight, 10 μL of compound solution was added to each well and cultured at 37° C. in a 5% CO2 incubator for 5 days. According to the instruction from the CellTilter-Glo (CTG) kit (Promega, Cat. No. G7572), the cell culture plate was removed from incubator and equilibrated to room temperature. The cells were lysed fully with 50 μL of CTG reagent and placed at room temperature for 10 min. A luminescence signal was read by the microplate reader (EnVision, Perkin Elmer). […] An inhibition curve of the compound was plotted by XLfit software and the inhibitory IC50 was calculated.

Compound | IC50 [1] [nM] | IC50 [2] [nM]
Cn1c(N2CCC3(CCC[C@H]3N)CC2)ncc(Sc2cccc3[nH]ncc23)c1=O [Compound 3, (R)-5-((1H-indazole-4-yl)thio)-2-(1-amino-8-azaspiro[4.5]decan-8-yl)-3-methylpyrimidin-4(3H)-one hydrochloride] | 20 | 434
Cn1c(N2CCC3(CCC[C@H]3N)CC2)ncc(Sc2ccn3nccc3c2Cl)c1=O [Compound 8, (R)-2-(1-amino-8-azaspiro[4.5]decan-8-yl)-5-((4-chloropyrazolo[1,5-a]pyridin-5-yl)thio)-3-methylpyrimidin-4(3H)-one formate] | 8.6 | 309
Cn1nc2ccc(Sc3cnc(N4CCC5(CCC[C@H]5N)CC4)n(C)c3=O)c(Cl)c2c1C#N [Compound 9, (R)-5-((2-(1-amino-8-azaspiro[4.5]decan-8-yl)-1-methyl-6-oxo-1,6-dihydropyrimidin-5-yl)thio)-4-chloro-2-methyl-2H-indazole-3-carbonitrile formate] | 8.8 | 1340
C[C@@H]1OCC2(CCN(c3ncc(Sc4ccc5nn(C)cc5c4Cl)c(=O)n3C)CC2)[C@@H]1N [Compound 11, 2-((3S,4S)-4-amino-3-methyl-2-oxa-8-azaspiro[4.5]decan-8-yl)-5-((4-chloro-2-methyl-2H-indazole-5-yl)thio)-3-methylpyrimidin-4(3H)-one formate] | 4 | 165
C[C@@H]1OCC2(CCN(c3ncc(Sc4ccn5nccc5c4Cl)c(=O)n3C)CC2)[C@@H]1N [Compound 12, 2-((3S,4S)-4-amino-3-methyl-2-oxa-8-azaspiro[4.5]decan-8-yl)-5-((4-chloropyrazolo[1,5-a]pyridin-5-yl)thio)-3-methylpyrimidin-4(3H)-one formate] | 3.1 | 264
C[C@@H]1OCC2(CCN(c3nc(N)c(Sc4ccc5nn(C)cc5c4Cl)c(=O)n3C)CC2)[C@@H]1N [Compound 14, 6-Amino-2-((3S,4S)-4-amino-3-methyl-2-oxa-8-azaspiro[4.5]decan-8-yl)-5-((4-chloro-2-methyl-2H-indazole-5-yl)thio)-3-methylpyrimidin-4(3H)-one formate] | 2.5 | 108
C[C@@H]1OCC2(CCN(c3nc(N)c(Sc4ccn5nccc5c4Cl)c(=O)n3C)CC2)[C@@H]1N [Compound 15, 6-Amino-2-((3S,4S)-4-amino-3-methyl-2-oxa-8-azaspiro[4.5]decan-8-yl)-5-((4-chloropyrazolo[1,5-a]pyridine-5-yl)thio)-3-methylpyrimidin-4(3H)-one formate] | 2.7 | 342
Cn1cc2c(Cl)c(Sc3cnc(N4CCC(C)(CN)CC4)n(C)c3=O)ccc2n1 [Compound 16, 2-(4-(Aminomethyl)-4-methylpiperidin-1-yl)-5-((4-chloro-2-methyl-2H-indazole-5-yl)thio)-3-methylpyrimidin-4(3H)-one formate] | 56 | –

Further lines, results first:

IC50 [1] [nM] | IC50 [2] [nM] | Compound
23 | 310 | Cn1c(N2CCC3(CCC[C@H]3N)CC2)ncc(Sc2ccnc3[nH]ccc23)c1=O [Compound 1, (R)-5-((1H-pyrrolo[2,3-b]pyridin-4-yl)thio)-2-(1-amino-8-azaspiro[4.5]decan-8-yl)-3-methylpyrimidin-4(3H)-one hydrochloride]
20 | 383 | Cn1c(N2CCC3(CCC[C@H]3N)CC2)ncc(Sc2ccnc3c2ccn3C)c1=O [Compound 2, (R)-2-(1-amino-8-azaspiro[4.5]decan-8-yl)-3-methyl-5-((1-methyl-1H-pyrrolo[2,3-b]pyridin-4-yl)thio)pyrimidin-4(3H)-one formate]
126 | 2360 | Cn1c(N2CCC3(CCC[C@H]3N)CC2)ncc(Sc2cccn3nccc23)c1=O [Compound 4, (R)-2-(1-amino-8-azaspiro[4.5]decan-8-yl)-3-methyl-5-(pyrazolo[1,5-a]pyridin-4-ylthio)pyrimidin-4(3H)-one formate]
801 | – | Cn1c(N2CCC3(CCC[C@H]3N)CC2)ncc(Sc2ccn3nccc3c2)c1=O [Compound 5, (R)-2-(1-amino-8-azaspiro[4.5]decan-8-yl)-3-methyl-5-(pyrazolo[1,5-a]pyridin-5-ylthio)pyrimidin-4(3H)-one hydrochloride]
877 | – | Cn1c(N2CCC3(CCC[C@H]3N)CC2)ncc(Sc2ccc3[nH]ncc3c2)c1=O [Compound 6, (R)-5-((1H-indazole-5-yl)thio)-2-(1-amino-8-azaspiro[4.5]decan-8-yl)-3-methylpyrimidin-4(3H)-one hydrochloride]
36 | 1760 | Cn1cc2c(Cl)c(Sc3cnc(N4CCC5(CC4)COC[C@H]5N)n(C)c3=O)ccc2n1 [Compound 10, (S)-2-(4-amino-2-oxa-8-azaspiro[4.5]decan-8-yl)-5-((4-chloro-2-methyl-2H-indazole-5-yl)thio)-3-methylpyrimidin-4(3H)-one]
8.7 | – | Cn1c(N2CCC3(CCC[C@H]3N)CC2)nc(N)c(Sc2cccc3[nH]ncc23)c1=O [Compound 13, (R)-5-((1H-indazole-4-yl)thio)-6-amino-2-(1-amino-8-azaspiro[4.5]decan-8-yl)-3-m ethylpyrimidin-4(3H)-one formate]
14 | 540 | C[C@@H]1OCC2(CCN(c3ncc(Sc4ccnc5c4ccn5C)c(=O)n3C)CC2)[C@@H]1N [Compound 17, 2-((3S,4S)-4-amino-3-methyl-2-oxa-8-azaspiro[4.5]decan-8-yl)-3-methyl-5-((1-methyl-1H-pyrrolo[2,3-b]pyridin-4-yl)thio)pyrimidin-4(3H)-one formate]
5.5 | 335 | C[C@@H]1OCC2(CCN(c3ncc(Sc4ccnc5[nH]ccc45)c(=O)n3C)CC2)[C@@H]1N [Compound 18, 5-((1H-pyrrolo[2,3-b]pyridin-4-yl)thio)-2-((3S,4S)-4-amino-3-methyl-2-oxa-8-azaspiro[4.5]decan-8-yl)-3-methylpyrimidin-4(3H)-one formate]
11 | 222 | [2H]C([2H])([2H])n1c(N2CCC3(CC2)CO[C@@H](C)[C@H]3N)ncc(Sc2ccc3nn(C)cc3c2Cl)c1=O [Compound 19, 2-((3S,4S)-4-amino-3-methyl-2-oxa-8-azaspiro[4.5]decan-8-yl)-5-((4-chloro-2-methyl-2H-indazole-5-yl)thio)-3-(methyl-d3)pyrimidin-4(3H)-one]
